Converted amounts (≈) assume the structure as drawn.
Tests used:
Propionibacterium acnes = assay: conventional tube dilution test, anaerobic; type: cell-based; conditions: Cutibacterium acnes, medium pH 6.9, read-out: minimum inhibitory concentration
Protocol: For example, 5-bromo-2-methyl-5-nitro-1,3-dioxane (Compound C) was tested against Propionibacterium acnes (formerly called Corynebacterium acnes) in a conventional tube dilution test. A simultaneous test was run utilizing 2-bromo-2-nitropropane,1,3-diol (Compound A) and 5-bromo-5-nitro-1,3-dioxane (Compound B) as the antimicrobials.
The test against Propionibacterium acnes were run anaerobically in the following medium:
(§1) Distilled water q.s. -- 1000 ml
The pH of the medium was 6.9

Escherichia coli [1] = assay: conventional tube dilution test (Table I); type: cell-based; conditions: 48 h, antibiotic Number 3 medium, two days at 37° C., read-out: Minimum Inhibitory Concentration
Protocol: (§2) The in vitro antimicrobial activities of Compounds A, B and C, 5-bromo-2-ethyl-5-nitro-1,3-dioxane (Compound D), 5-bromo-5-nitro-2-n-propyl-1,3-dioxane (Compound E), and 5-bromo-2-isopropyl-5-nitro-1,3-dioxane (Compound F) were determined concurrently against Pseudomonas aeruginosa, Staphylococcus aureus, Escherichia coli, and Streptococcus faecalis in a conventional tube dilution test. The medium used was antibiotic Number 3 [CFR 436.102(3)] and the concentration of organisms was 10^4 organisms per ml of medium, with each tube being inoculated with 0.1 ml of inoculum. The figures shown in Table I are the lowest concentrations in mcg of active compound/ml of medium where no growth occurred in the medium after two days' incubation at 37° C.

Pseudomonas aeruginosa [2] = assay: conventional tube dilution test (Table I); type: cell-based; conditions: 48 h, antibiotic Number 3 medium, two days at 37° C., read-out: Minimum Inhibitory Concentration
Protocol: as §2

Staphylococcus aureus [3] = assay: conventional tube dilution test (Table I); type: cell-based; conditions: 48 h, antibiotic Number 3 medium, two days at 37° C., read-out: Minimum Inhibitory Concentration
Protocol: as §2

Streptococcus faecalis [4] = assay: conventional tube dilution test (Table I); type: cell-based; conditions: Enterococcus faecalis, 48 h, antibiotic Number 3 medium, two days at 37° C., read-out: Minimum Inhibitory Concentration
Protocol: as §2

Aspergillus niger [5] = assay: agar plate system (Table II); type: cell-based; conditions: antibiotic medium 22, 72 hours at 30° C., read-out: Minimum Inhibitory Concentration
Protocol: (§3) The antimicrobial activities of Compounds A, B, C, D, E and F were also determined in an agar plate system. The compounds were added to melted and cooled (50° C.) agar in twofold concentration increments from 50 mcg per ml of agar to 1.56 mcg per ml of agar. Antibiotic medium 1 [CFR 436.102(1)] was used for testing of Pseudomonas aeruginosa, Staphylococcus aureus, Escherichia coli, and Streptococcus faecalis, but antibiotic medium 22 [CFR 436.102(22)] was used for testing of Candida albicans and Aspergillus niger. Organism suspensions containing 10^6 organisms per ml were used as stock suspensions. Sterile cotton swabs were dipped in the suspensions and then streaked across the solidified agar. The figures shown in Table II were the lowest concentrations at which no growth occurred after 72 hours at 30° C. These values were interpreted as the minimum inhibitory concentration (MIC).

Candida albicans [6] = assay: agar plate system (Table II); type: cell-based; conditions: antibiotic medium 22, 72 hours at 30° C., read-out: Minimum Inhibitory Concentration
Protocol: as §3

Escherichia coli [7] = assay: agar plate system (Table II); type: cell-based; conditions: antibiotic medium 1, 72 hours at 30° C., read-out: Minimum Inhibitory Concentration
Protocol: as §3

Pseudomonas aeruginosa [8] = assay: agar plate system (Table II); type: cell-based; conditions: antibiotic medium 1, 72 hours at 30° C., read-out: Minimum Inhibitory Concentration
Protocol: as §3

Staphylococcus aureus [9] = assay: agar plate system (Table II); type: cell-based; conditions: antibiotic medium 1, 72 hours at 30° C., read-out: Minimum Inhibitory Concentration
Protocol: as §3

Streptococcus faecalis [10] = assay: agar plate system (Table II); type: cell-based; conditions: Enterococcus faecalis, antibiotic medium 1, 72 hours at 30° C., read-out: Minimum Inhibitory Concentration
Protocol: as §3

Aspergillus fumigatus = assay: In Vitro Antifungal Activity, agar plates (Table III); type: cell-based; conditions: 72 h, three days at 25° C., pH 5.7, read-out: Minimum Inhibitory Concentration
Protocol: (§4) Compounds A, B, and C were tested further to determine antifungal activity. The compounds were added to melted and cooled (50° C.) agar to obtain concentrations of 100, 50, 25, 12.5, 6.25 and 0.0 mcg per ml of agar. After the agar solidified, sterile cotton swabs were dipped in stock suspensions of the organisms (10^6 organisms per ml of physiological saline) and then streaked across the agar. After three days' incubation at 25° C., concentrations which prevented growth were recorded as the minimal inhibitory concentration. The composition of the medium used in this study was as follows:
(§5) Calcium carbonate -- 0.5 g
(§6) V-8 juice filtrate -- 200.0 ml
as §1
(§7) The pH was adjusted to 5.7.

Aspergillus terreus = assay: as above; type: cell-based; conditions: 72 h, three days at 25° C., pH 5.7, read-out: Minimum Inhibitory Concentration
Protocol: as §4, §5, §6, §1, §7

Botrytis cinerea = assay: as above; type: cell-based; conditions: 72 h, three days at 25° C., pH 5.7, read-out: Minimum Inhibitory Concentration
Protocol: as §4, §5, §6, §1, §7

Chaetomium globosum = assay: as above; type: cell-based; conditions: 72 h, three days at 25° C., pH 5.7, read-out: Minimum Inhibitory Concentration
Protocol: as §4, §5, §6, §1, §7

Colletotrichum phomoides = assay: as above; type: cell-based; conditions: 72 h, three days at 25° C., pH 5.7, read-out: Minimum Inhibitory Concentration
Protocol: as §4, §5, §6, §1, §7

[11] = test system: Fusarium oxysporum cubense; assay: as above; type: cell-based; conditions: 72 h, three days at 25° C., pH 5.7, read-out: Minimum Inhibitory Concentration
Protocol: as §4, §5, §6, §1, §7

Microsporum gypseum = assay: as above; type: cell-based; conditions: Nannizzia gypsea, 72 h, three days at 25° C., pH 5.7, read-out: Minimum Inhibitory Concentration
Protocol: as §4, §5, §6, §1, §7

Penicillium notatum = assay: as above; type: cell-based; conditions: Penicillium chrysogenum, 72 h, three days at 25° C., pH 5.7, read-out: Minimum Inhibitory Concentration
Protocol: as §4, §5, §6, §1, §7

Rhodotorula glutinis = assay: as above; type: cell-based; conditions: 72 h, three days at 25° C., pH 5.7, read-out: Minimum Inhibitory Concentration
Protocol: as §4, §5, §6, §1, §7

[12] = test system: Saccharomyces pastorianus; assay: as above; type: cell-based; conditions: 72 h, three days at 25° C., pH 5.7, read-out: Minimum Inhibitory Concentration
Protocol: as §4, §5, §6, §1, §7

[13] = prior art; cited from earlier work
Aspergillus niger [14] = assay: in vitro agar plate determination (Table VII); type: cell-based; conditions: agar plates at 10, 25 and 50 mcg. per ml., 24 hours, read-out: Minimum Inhibitory Concentration
Protocol: (§8) The antimicrobial activities of […] (Compound G) were determined concurrently with 5-bromo-2-methyl-5-nitro-1,3-dioxane (Compound C) and 5-bromo-5-nitro-1,3-dioxane (Compound B) against the same six organisms shown in Table II. […] The tests were in vitro determinations utilizing agar plates containing the active compound at 10, 25 and 50 mcg. per ml. of agar. The organisms, at concentrations of 10^6 organisms per milliliter, were streaked on the solidified agar. The plates were incubated for 24 hours and the presence or absence of growth noted. The minimum inhibitory concentration (MIC) was determined as the lowest active compound concentration in the agar where no growth occurred.

Candida albicans [15] = assay: in vitro agar plate determination (Table VII); type: cell-based; conditions: agar plates at 10, 25 and 50 mcg. per ml., 24 hours, read-out: Minimum Inhibitory Concentration
Protocol: as §8

Escherichia coli [16] = assay: in vitro agar plate determination (Table VII); type: cell-based; conditions: agar plates at 10, 25 and 50 mcg. per ml., 24 hours, read-out: Minimum Inhibitory Concentration
Protocol: as §8

Pseudomonas aeruginosa [17] = assay: in vitro agar plate determination (Table VII); type: cell-based; conditions: agar plates at 10, 25 and 50 mcg. per ml., 24 hours, read-out: Minimum Inhibitory Concentration
Protocol: as §8

Staphylococcus aureus [18] = assay: in vitro agar plate determination (Table VII); type: cell-based; conditions: agar plates at 10, 25 and 50 mcg. per ml., 24 hours, read-out: Minimum Inhibitory Concentration
Protocol: as §8

Streptococcus faecalis [19] = assay: in vitro agar plate determination (Table VII); type: cell-based; conditions: Enterococcus faecalis; agar plates at 10, 25 and 50 mcg. per ml., 24 hours; read-out: Minimum Inhibitory Concentration
Protocol: as §8

human skin [20] = assay: Human Repeated Insult Patch Test, induction series (irritation); conditions: in vivo
From the text: The following protocol was followed in testing each compound.
Two-hundred subjects were employed in each investigation.

human skin [21] = conditions: in vivo
From the text: Two-hundred subjects were employed in each investigation. The repeated insult technique was used in the patch test. A different group of subjects were utilized for each evaluation.
The technique used for the patch test called for a series of 9 induction patches of each test material to be placed on each of the subjects. The series was followed two weeks later by a single "challenge" patch of each test material to detect skin sensitization.
The series of nine induction patches was applied on Monday, Wednesday and Thursday and allowed to contact the skin for 24 hours, after which time they were removed and the skin sites graded for irritation. Thursday's patches were placed immediately after removal and grading of Wednesday's applications. After the ninth induction patches had been placed, a non-patching period of 2 weeks elapsed before the challenge patches were applied to detect sensitization reactions. For this 24-hour patch, a new skin site was used. This site was invariably chosen adjacent to an induction site; i.e., one where repeated applications had been made during the series of nine induction patches. The challenge applications were graded at 24 and 72 hours after application.
The skin applications for each material were made using oval-shaped adhesive patches (1" × 11/4") with circular gauze centers. The gauze centers were coated with approximately 0.03 ml. of the respective test material just prior to application.
The scoring criteria used for skin irritation reactions and in evaluating the sensitization evidenced on the challenge application follows:
Four separate formulations of each compound were tested along with two formulations of parabens.
A reading of 5 or more on the 8-point scale was deemed to be indicative of the development of skin sensitization to the test compound.

human skin [22] = conditions: prior art; cited from earlier work
[23] = chemical stability towards pH / alkali; type: physicochemical; conditions: pH 5-9
[24] = solubility in water and mineral oil; type: physicochemical; conditions: compared with other species of the invention
microorganisms = assay: antimicrobial tests on isomeric mixtures; type: cell-based; conditions: one high in the cis- form, the other high in the trans- form
Protocol: The novel compounds of this embodiment of the present invention, exemplified in Examples 1, 2, 3, and 4 can exist as cis- and trans-isomers. The procedure outlined in Example 1 produces a ratio of isomers of about 9:1. It is the intent of this invention to include both geometric isomers as chemical entities as well as the isomeric mixture. […] Consequently, the utility tests described hereinafter were conducted employing the isomeric mixture (about 9:1) prepared as detailed in Example 1.

SMILES	MIC (Propionibacterium acnes) [µg/mL]	MIC (Escherichia coli [1]) [µg/mL]	MIC (Pseudomonas aeruginosa [2]) [µg/mL]	MIC (Staphylococcus aureus [3]) [µg/mL]	MIC (Streptococcus faecalis [4]) [µg/mL]	MIC (Aspergillus niger [5]) [µg/mL]	MIC (Candida albicans [6]) [µg/mL]	MIC (Escherichia coli [7]) [µg/mL]	MIC (Pseudomonas aeruginosa [8]) [µg/mL]	MIC (Staphylococcus aureus [9]) [µg/mL]	MIC (Streptococcus faecalis [10]) [µg/mL]	MIC (Aspergillus fumigatus) [µg/mL]	MIC (Aspergillus terreus) [µg/mL]	MIC (Botrytis cinerea) [µg/mL]	MIC (Chaetomium globosum) [µg/mL]	MIC (Colletotrichum phomoides) [µg/mL]	MIC [11] [µg/mL]	MIC (Microsporum gypseum) [µg/mL]	MIC (Penicillium notatum) [µg/mL]	MIC (Rhodotorula glutinis) [µg/mL]	other results
O=[N+]([O-])C(Br)(CO)CO [Compound A, 2-bromo-2-nitropropane-1,3-diol]	6.25 (≈ 31.3 µM)	12.5 (≈ 62.5 µM)	12.5 (≈ 62.5 µM)	25 (≈ 125 µM)	25 (≈ 125 µM)	> 50	> 50	6.25 (≈ 31.3 µM)	6.25 (≈ 31.3 µM)	12.5 (≈ 62.5 µM)	12.5 (≈ 62.5 µM)	< 6.25	25 (≈ 125 µM)	25 (≈ 125 µM)	< 6.25	> 100	25 (≈ 125 µM)	50 (≈ 250 µM)	100 (≈ 500 µM)	100 (≈ 500 µM)	MIC [12]: > 100 µg/mL; chemical stability towards alkali [13]: chemically unstable towards alkali
O=[N+]([O-])C1(Br)COCOC1 [Compound B, 5-bromo-5-nitro-1,3-dioxane, reference compound]	6.25 (≈ 29.5 µM)	25 (≈ 118 µM)	25 (≈ 118 µM)	25 (≈ 118 µM)	25 (≈ 118 µM)	25 (≈ 118 µM)	12.5 (≈ 59 µM)	6.25 (≈ 29.5 µM)	12.5 (≈ 59 µM)	12.5 (≈ 59 µM)	12.5 (≈ 59 µM)	< 6.25	25 (≈ 118 µM)	50 (≈ 236 µM)	< 6.25	100 (≈ 472 µM)	< 6.25	50 (≈ 236 µM)	25 (≈ 118 µM)	50 (≈ 236 µM)	MIC [12]: 100 µg/mL (≈ 472 µM); MIC (Aspergillus niger [14]): 50 µg/mL (≈ 236 µM); MIC (Candida albicans [15]): 25 µg/mL (≈ 118 µM); MIC (Escherichia coli [16]): < 10 µg/mL; MIC (Pseudomonas aeruginosa [17]): 25 µg/mL (≈ 118 µM); MIC (Staphylococcus aureus [18]): 25 µg/mL (≈ 118 µM); MIC (Streptococcus faecalis [19]): < 10 µg/mL; irritation readings compared with the 2-methyl derivative (human skin [20]): more severe; sensitizing effect (human skin [21]): marked sensitizing effect; subjects evaluated as being sensitive on the challenge test (human skin [21]): 11 subjects; chemical stability towards alkali [13]: does possess chemical stability towards alkali; irritation and sensitization in human subjects (human skin [22]): induces irritation and sensitization in a significant number of human subjects
CC1OCC(Br)([N+](=O)[O-])CO1 (stereo not shown) [Compound C, 5-bromo-2-methyl-5-nitro-1,3-dioxane]	6.25 (≈ 27.7 µM)	25 (≈ 111 µM)	25 (≈ 111 µM)	25 (≈ 111 µM)	25 (≈ 111 µM)	12.5 (≈ 55.3 µM)	6.25 (≈ 27.7 µM)	12.5 (≈ 55.3 µM)	25 (≈ 111 µM)	12.5 (≈ 55.3 µM)	12.5 (≈ 55.3 µM)	< 6.25	12.5 (≈ 55.3 µM)	12.5 (≈ 55.3 µM)	< 6.25	100 (≈ 442 µM)	12.5 (≈ 55.3 µM)	100 (≈ 442 µM)	25 (≈ 111 µM)	100 (≈ 442 µM)	MIC [12]: > 100 µg/mL; MIC (Aspergillus niger [14]): 12.5 µg/mL (≈ 55.3 µM); MIC (Candida albicans [15]): 6.25 µg/mL (≈ 27.7 µM); MIC (Escherichia coli [16]): 12.5 µg/mL (≈ 55.3 µM); MIC (Pseudomonas aeruginosa [17]): 25 µg/mL (≈ 111 µM); MIC (Staphylococcus aureus [18]): 12.5 µg/mL (≈ 55.3 µM); MIC (Streptococcus faecalis [19]): 12.5 µg/mL (≈ 55.3 µM); chemical stability at pH [23]: chemically stable at pH's from 5.0 to 9.0; solubility in water and oil, qualitative [24]: superior solubility in water and oil; antimicrobial activity of isomeric mixtures (microorganisms): equal activity; subjects evaluated as being sensitive on the challenge test (human skin [21]): none

Source: patent US4025533A, “5-Bromo-5-nitro-2-alkylsubstituted-1,3-dioxane” (Eli Lilly and Company, priority 1976, dated 1977)
